The target in data set [1] is T1, Toll-like receptor 9 (Homo sapiens, UniProt Q9NR96).
T1 sequence (Q9NR96 whole entry): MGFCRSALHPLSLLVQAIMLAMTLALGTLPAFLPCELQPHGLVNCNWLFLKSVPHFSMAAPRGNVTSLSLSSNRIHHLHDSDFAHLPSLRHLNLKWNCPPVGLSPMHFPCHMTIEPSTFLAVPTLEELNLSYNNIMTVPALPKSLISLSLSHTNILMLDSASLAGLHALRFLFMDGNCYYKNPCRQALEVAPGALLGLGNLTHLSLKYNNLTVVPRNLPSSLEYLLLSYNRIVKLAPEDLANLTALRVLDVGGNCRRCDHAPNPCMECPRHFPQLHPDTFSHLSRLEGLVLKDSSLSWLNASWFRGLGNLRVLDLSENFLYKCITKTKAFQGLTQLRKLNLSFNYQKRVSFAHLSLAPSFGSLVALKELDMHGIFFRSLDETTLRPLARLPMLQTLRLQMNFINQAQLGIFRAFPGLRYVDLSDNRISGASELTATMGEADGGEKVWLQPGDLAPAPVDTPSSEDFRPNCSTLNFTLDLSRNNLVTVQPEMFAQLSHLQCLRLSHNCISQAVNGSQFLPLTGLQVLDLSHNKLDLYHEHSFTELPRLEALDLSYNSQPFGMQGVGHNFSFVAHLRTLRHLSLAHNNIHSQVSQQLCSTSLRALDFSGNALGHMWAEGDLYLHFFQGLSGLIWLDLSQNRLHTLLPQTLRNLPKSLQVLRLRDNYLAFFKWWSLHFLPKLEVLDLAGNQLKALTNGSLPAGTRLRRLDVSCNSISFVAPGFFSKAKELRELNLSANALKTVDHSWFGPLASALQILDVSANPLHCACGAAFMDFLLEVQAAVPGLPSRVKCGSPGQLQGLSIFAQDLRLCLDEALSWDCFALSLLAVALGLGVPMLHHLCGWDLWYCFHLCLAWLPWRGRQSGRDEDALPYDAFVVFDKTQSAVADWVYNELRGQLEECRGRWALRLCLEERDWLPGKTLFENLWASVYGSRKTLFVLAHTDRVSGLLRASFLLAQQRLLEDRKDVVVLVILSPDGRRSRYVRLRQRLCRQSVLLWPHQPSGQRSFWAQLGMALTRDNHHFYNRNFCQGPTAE
Kind of data set: Antagonist activity at TLR9 in human Whole blood cell assessed as reduction in IFN-alpha level measured after 30 mins. The data set is classed as tissue-based.

Data set [2] has as its target T2, Toll-like receptor 9 (Mus musculus, UniProt Q9EQU3).
T2 sequence (Q9EQU3 whole entry): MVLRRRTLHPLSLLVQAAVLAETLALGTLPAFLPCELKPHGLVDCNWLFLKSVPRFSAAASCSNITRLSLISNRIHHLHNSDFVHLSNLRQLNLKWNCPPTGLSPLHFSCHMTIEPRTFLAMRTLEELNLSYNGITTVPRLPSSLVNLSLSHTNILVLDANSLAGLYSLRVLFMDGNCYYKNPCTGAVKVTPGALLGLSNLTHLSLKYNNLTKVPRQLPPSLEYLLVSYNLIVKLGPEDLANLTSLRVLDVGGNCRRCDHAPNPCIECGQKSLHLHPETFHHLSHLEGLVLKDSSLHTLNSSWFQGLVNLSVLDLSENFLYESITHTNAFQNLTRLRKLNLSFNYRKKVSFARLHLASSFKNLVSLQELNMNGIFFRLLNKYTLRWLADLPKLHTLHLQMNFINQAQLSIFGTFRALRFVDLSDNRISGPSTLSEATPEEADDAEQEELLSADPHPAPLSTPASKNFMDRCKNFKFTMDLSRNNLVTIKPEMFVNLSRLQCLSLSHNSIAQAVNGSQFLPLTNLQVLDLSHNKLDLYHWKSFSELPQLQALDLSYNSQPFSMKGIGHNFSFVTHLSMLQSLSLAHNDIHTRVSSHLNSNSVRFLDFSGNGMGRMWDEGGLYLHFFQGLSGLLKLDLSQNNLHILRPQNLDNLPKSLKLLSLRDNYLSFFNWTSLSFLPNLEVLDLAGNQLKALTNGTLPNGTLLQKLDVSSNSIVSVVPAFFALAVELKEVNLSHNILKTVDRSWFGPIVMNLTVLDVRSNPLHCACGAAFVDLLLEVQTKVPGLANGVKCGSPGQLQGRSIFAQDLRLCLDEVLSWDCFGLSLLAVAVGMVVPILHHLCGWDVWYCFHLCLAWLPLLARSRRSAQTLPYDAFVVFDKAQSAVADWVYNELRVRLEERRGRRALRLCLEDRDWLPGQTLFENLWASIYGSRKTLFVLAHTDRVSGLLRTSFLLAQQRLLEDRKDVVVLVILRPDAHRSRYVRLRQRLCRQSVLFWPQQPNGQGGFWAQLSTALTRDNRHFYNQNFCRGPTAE
Kind of data set: Antagonist activity at TLR9 in mouse Whole blood cell assessed as reduction in IFN-alpha level measured after 20 hrs by AlphaLISA method. The data set is classed as tissue-based.

Data set [3] concerns the target Toll-like receptor 7 (Mus musculus) (UniProt P58681). Kind of data set: In vivo antagonist activity against TLR7 in mouse assessed as suppression of IFN alpha level at 10 mg/kg, po measured at 3 hrs by LC-MS/MS analysis.
Data set [4] is described as follows: AUC in mouse at 3 mg/kg, iv. Also noted: dose 3 mg/kg, route iv. The conditions noted are these: in vivo. Type of data set: ADME, organism-based.
Data set [5] can be described thus: Clearance in mouse at 3 mg/kg, iv. Type of data set: ADME, organism-based. The following applies: in vivo.
Data set [6] can be described thus: Volume of distribution at steady state in mouse at 3 mg/kg, iv. The data set is classed as ADME, organism-based. The following applies: in vivo, read-out: Vdss.
Data set [7] is described as follows: AUC in mouse at 20 mg/kg, po. The data set is classed as ADME, organism-based. Details: dose 20 mg/kg, route po. The following applies: in vivo.
A short description of data set [8]: Clast in mouse at 20 mg/kg, po. Type of data set: ADME, organism-based. The following applies: in vivo, read-out: Clast.
Data set [9] is described as follows: Tlast in mouse at 20 mg/kg, po. Type of data set: ADME, organism-based. The following applies: in vivo.
Data set [10] is described as follows: MRT in mouse at 20 mg/kg, po. Type of data set: ADME, organism-based. The conditions noted are these: in vivo.
Data set [11] can be described thus: Efflux ratio of permeability basolateral to apical over apical to basolateral side in human Caco-2 cells. Type of data set: ADME, cell-based.
Data set [12] has as its target T3, Nuclear receptor subfamily 1 group I member 2 (Homo sapiens, UniProt O75469).
T3 sequence (O75469 whole entry): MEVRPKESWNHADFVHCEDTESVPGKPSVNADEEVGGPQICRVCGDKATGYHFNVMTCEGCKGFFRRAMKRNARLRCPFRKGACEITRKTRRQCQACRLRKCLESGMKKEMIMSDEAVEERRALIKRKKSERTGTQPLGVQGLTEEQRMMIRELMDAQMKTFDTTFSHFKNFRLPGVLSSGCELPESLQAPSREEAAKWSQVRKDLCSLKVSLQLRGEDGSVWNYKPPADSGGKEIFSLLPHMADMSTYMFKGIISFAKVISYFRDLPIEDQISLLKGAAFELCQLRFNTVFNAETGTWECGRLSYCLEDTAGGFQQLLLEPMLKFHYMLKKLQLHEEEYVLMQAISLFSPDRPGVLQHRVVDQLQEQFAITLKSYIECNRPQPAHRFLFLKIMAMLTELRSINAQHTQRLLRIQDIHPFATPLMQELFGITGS
The data set can be described thus: Induction of PXR (unknown origin) relative to control.

The next data set has as its target Cytochrome P450 2D6 (Homo sapiens, UniProt P10635). The data set can be described thus: Inhibition of CYP2D6 (unknown origin). Type of data set: ADME.
Data set [13] can be described thus: Solubility of the compound. The data set is classed as physicochemical.

Cytochrome P450 2D6, sequence (P10635 whole entry): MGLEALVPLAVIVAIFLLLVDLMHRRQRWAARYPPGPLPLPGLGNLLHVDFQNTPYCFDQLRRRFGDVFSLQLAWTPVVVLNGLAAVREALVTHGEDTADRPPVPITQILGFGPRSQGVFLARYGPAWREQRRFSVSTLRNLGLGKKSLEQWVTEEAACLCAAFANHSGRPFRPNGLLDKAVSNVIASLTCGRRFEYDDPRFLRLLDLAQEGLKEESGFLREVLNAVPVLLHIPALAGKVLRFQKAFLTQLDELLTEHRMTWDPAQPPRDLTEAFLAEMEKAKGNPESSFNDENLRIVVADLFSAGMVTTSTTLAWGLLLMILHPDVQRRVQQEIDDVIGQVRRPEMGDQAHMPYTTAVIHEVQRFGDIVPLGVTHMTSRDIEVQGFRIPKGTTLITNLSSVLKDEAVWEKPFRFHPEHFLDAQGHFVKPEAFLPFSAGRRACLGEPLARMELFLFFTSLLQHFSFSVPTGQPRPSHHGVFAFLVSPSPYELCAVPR

Take `Cc1cc(N2CCc3c(c(C)nn3CC34CCC(NC(=O)[C@@H]5COCCN5)(CC3)CC4)C2)c2cnn(C)c2n1` [MHV-370]: the IC50 on Toll-like receptor 9 [1] is 1200 nM; on Toll-like receptor 9 [2], > 10 µM. Also, the Activity in data set [3] was 550 ng/mL.

Turning to `Cc1cc(N2CCc3c(c(C)nn3CC34CCC(N)(CC3)CC4)C2)c2cnn(C)c2n1`, the results for the AUC in [4] and in [7] were 5.005 µM·h and 1.15 µM·h, respectively. In addition, in [5], the clearance is 24 mL/min/kg. Moreover, in data set [6], the Vd was 4.1 L/kg. Moreover, the concentration in [8] was found to be 35 nM. Moreover, in data set [9], the Tlast came to 7 h. In data set [10], this molecule gave an MRT of 2.9 h. Further, the efflux ratio in [11] is 7.5. Further, the Activity in data set [12] was determined as 7.9%. For the same molecule, the IC50 on Cytochrome P450 2D6 is > 25 µM. Also, the solubility in data set [13] was > 175 µM.
